Series [1] has as its system stationary phase B. burgdorferi persisters (strain B31). Put plainly: NCI compound library rescreen, epifluorescence microscope counting. The following applies: for viability at 50 µM / viability at 20 µM: Borreliella burgdorferi, 168 h; for viability at 20 µM: read-out: Residual viable cells (%) 20 μM (epifluorescence microscope counting); for Residual viable cells (%) 20 μM (epifluorescence microscope counting) / Residual viable cells (%) 50 μM (epifluorescence microscope counting): seven day old stationary phase; for Residual viable cells (%) 20 μM (epifluorescence microscope counting) / Residual viable cells (epifluorescence microscope counting) / Residual viable cells (%) 50 μM (epifluorescence microscope counting): 7 days; for Residual viable cells (epifluorescence microscope counting) / Residual viable cells (%) 50 μM (epifluorescence microscope counting): 50 μM; for Residual viable cells (epifluorescence microscope counting): seven day old stationary phase culture.

The test system is the same in series [2]. The experiment in a line: NCI compound library screen, SYBR Green I/PI assay (plate reader). Particulars: for viability at 50 µM / viability at 20 µM: Borreliella burgdorferi, 168 h; for Residual viable cells (%) 20 μM (SYBR Green I/PI assay): seven day old stationary phase; for Residual viable cells (%) 20 μM (SYBR Green I/PI assay) / Residual viable cells (SYBR Green I/PI assay): 7 days; for Residual viable cells (SYBR Green I/PI assay): 50 μM, seven day old stationary phase culture.

In series [3] the test system is B. burgdorferi (growing, strain B31). The experiment in a line: MIC determination, standard microdilution method. It is filed as cell-based, Borrelia burgdorferi. Particulars: for sensitivity of log phase / multiplying B. burgdorferi (words, FIG. 12): MIC test.
Series [4] concerns round body form of B. burgdorferi. Put plainly: SYBR Green I/PI assay on amoxicillin-induced round body form. Particulars: for viability at 50 µM: Borreliella burgdorferi, 168 h, read-out: Residual viable cells (SYBR Green I/PI assay); for Ratios of green/red fluorescence, Primary screening / Ratios of green/red fluorescence, Rescreening (first column) / Ratios of green/red fluorescence, Rescreening (second column): round body form, 50 μM, 7 days.

Series [5] deals with stationary phase B. burgdorferi persisters (strain B31). Put plainly: SYBR Green I/PI viability assay (plate reader), FDA-approved drug library screen.
Where [6] appears, read: read-out: Residual viable cells (epifluorescence microscope counting).
Where [7] appears, read: read-out: Residual viable cells (SYBR Green I/PI assay), 50 μM, seven day old stationary phase culture, 7 days.
The mark [8] stands for this setting: read-out: Residual viable cells (%) 50 μM (epifluorescence microscope counting).
Setting [9] is: read-out: Residual viable cells (%) 20 μM (SYBR Green I/PI assay).
Setting [10] is: read-out: Residual viable cells (SYBR Green I/PI assay).
The mark [11] stands for this setting: 50 μM, 7 days, stationary phase.

Consider 26 compounds from patent US20170058314A1, “NOVEL METHODOLOGY FOR IDENTIFYING ANTI-PERSISTER ACTIVITY AND ANTIMICROBIAL SUSCEPTIBILITY FOR BORRELIA BURGDORFERI AND OTHER BACTERIA” (priority 2014, published 2017).

Structures can show the parent of a compound that is named as a salt. Where two headings read alike, the source gives them in different places.

Turning to `O=C1c2cccc(Sc3ccccc3)c2C(=O)c2c(Sc3ccccc3)cccc21` [NSC156516, 1,8-Di(phenylthio)anthraquinone], the results for the viability at 50 µM in series [1] (setting [6]) and in series [2] (setting [7]) were 50% and 46%, respectively.
`NC(=O)OCC1=C(COC(N)=O)C(=O)c2c(O)ccc(O)c2C1=O` [NSC224124, (5,8-dihydroxy-1,4-dioxo-1,4-dihydronaphthalene-2,3-diyl)dimethanediyl dicarbamate]: the results for the viability at 20 µM in series [1] and in series [2] (setting [9]) were 77% and 54%, respectively. Besides, the viability at 50 µM is 31% in series [1] (setting [8]), 31% in series [1] (setting [6]) and 32% in series [2] (setting [10]).
Turning to `O=c1c(O)c(-c2ccc(O)c(O)c2)oc2cc(O)ccc12` [NSC407010, 2-(3,4-dihydroxyphenyl)-3,7-dihydroxy-4H-1-benzopyran-4-one], the viability at 50 µM amounted to 38% in series [1] (setting [6]) and 39% in series [2] (setting [7]).
As to “Benzoic acid, 2-hydroxy-, (2,6-pyridinediyldiethylidyne)dihydrazide, nickel complex [NSC617570]”, in series [1], the “Residual viable cells (%) 20 μM (epifluorescence microscope counting)” value worked out at 50%, the “Residual viable cells (epifluorescence microscope counting)” value is 38% and the “Residual viable cells (%) 50 μM (epifluorescence microscope counting)” value (shortened to “Residual viable cells (%) 50 μM”) came out at 38%. In series [2], the “Residual viable cells (%) 20 μM (SYBR Green I/PI assay)” value was 66% and the “Residual viable cells (SYBR Green I/PI assay)” value is on record as 44%.
For `COCCOC1=C(Cl)C(=O)c2c(O)ccc(O)c2C1=O` [NSC659997, Naphthalene-1,4-dione, 2-chloro-5,8-dihydroxy-3-(2-methoxyethoxy)-], the viability at 20 µM was determined as 50% in series [1] and 40% in series [2] (setting [9]). Moreover, the viability at 50 µM in series [1] (setting [8]) came out at 28%; in series [1] (setting [6]) it was 28%; in series [2] (setting [10]), 1%.
For `O=C1c2cccc(NCCCNCCO)c2C(=O)c2cccc(NCCCNCCO)c21` [NSC363998, Anthracene-9,10-dione, 1,5-bis[3-[[(2-hydroxyethyl)amino]propyl]amino]-9,10-dihydro-, dihydrochloride], the values for the viability at 20 µM in series [1] and in series [2] (setting [9]) were 14% and 22%, respectively. Further, the viability at 50 µM in series [1] (setting [8]) worked out at 13%; in series [1] (setting [6]), 13%; in series [2] (setting [10]), 0%.
For `CC[C@@]1(O)C[C@H](O[C@H]2C[C@H](N(C)C)[C@H](O)[C@H](C)O2)c2c(cc3c(c2O)C(=O)c2c(O)ccc(O)c2C3=O)[C@H]1C(=O)OC` [NSC267229, Pyrromycin], in series [1], the “Residual viable cells (%) 20 μM (epifluorescence microscope counting)” value is listed as 20%, the “Residual viable cells (epifluorescence microscope counting)” value came out at 21% and the “Residual viable cells (%) 50 μM” value came out at 21%. Besides, the “Activity against persisters (residual viable cell percentage)” value in series [1] (stationary phase persisters) amounted to 21%. Moreover, in series [2], the “Residual viable cells (%) 20 μM (SYBR Green I/PI assay)” value is on record as 6% and the “Residual viable cells (SYBR Green I/PI assay)” value turned out to be 0%. The MIC (in general, the least concentration at which growth counts as inhibited) in series [3] (growing B. burgdorferi) lay within 0.37 to 0.73 µg/mL.
Consider `C[C@]1(Cn2ccnn2)[C@H](C(=O)O)N2C(=O)C[C@H]2S1(=O)=O` [tazobactam], for which the “sensitivity of log phase / multiplying B. burgdorferi (words, FIG. 12)” value in series [3] is reported as “less potent”.
Take `CCCCCC1=C/C(=C/c2[nH]c(-c3ccc[nH]3)cc2OC)N=C1C` [NSC47147, Prodigiosin]: the viability at 50 µM in series [1] (read-out: Activity against persisters (residual viable cell percentage)) worked out at 24%; in series [1] (setting [8]), 24%; in series [1] (setting [6]) it was 24%; in series [2] (setting [7]) it was 0%. Moreover, the viability at 20 µM was determined as 45% in series [1] and 0% in series [2] (read-out: Residual viable cells (%) 20 μM (SYBR Green I/PI assay), 20 μM, seven day old stationary phase, 7 days). In addition, the minimal inhibitory concentration (MIC) is at most 0.2 µg/mL in series [3] (Borreliella burgdorferi) and “≦0.2 μg/mL” in series [3] (growing B. burgdorferi).
Consider `Cc1ncc([N+](=O)[O-])n1CCO` [Metronidazole], for which the “sensitivity of log phase / multiplying B. burgdorferi (words, FIG. 12)” value in series [3] is “less potent”. In addition, in series [4], the viability at 50 µM is 33%; the “Ratios of green/red fluorescence, Primary screening” value came to 6.23; the “Ratios of green/red fluorescence, Rescreening (first column)” value is 6.30; the “Ratios of green/red fluorescence, Rescreening (second column)” value was found to be 6.31.
`CCN(CC)c1ccc2cc3ccc(=[N+](CC)CC)cc-3oc2c1.[Cl-]` [NSC44690, Pyronin B] displayed an MIC in series [3] (growing B. burgdorferi) of 1.8 to 3.6 µg/mL.
As for `N=C(Nc1nc(-c2ccccn2)cc2ccccc12)c1ccccn1` [NSC637578, N-[3-(2-Pyridyl)isoquinolin-1-yl]-2-pyridinecarboxamidine], the viability at 50 µM in series [1] (setting [6]) is 26%; in series [2] (setting [10]), 46%.
Consider `C=CCNc1ncnc2sc(SC)nc12` [NSC343783, N-Allyl-2-(methylthio)[1,3]thiazolo[5,4-d]pyrimidin-7-amine], for which the viability at 50 µM in series [1] (setting [6]) came out at 20%; in series [2] (setting [10]) it was 67%.
Regarding `O/N=C(/c1ccccc1)c1ccc2c3c(cccc13)CC2` [NSC137399, 1-(1,2-Dihydro-5-acenaphthylenyl)-N-hydroxy-1-phenylmethanimine], the viability at 50 µM was 41% in series [1] (setting [6]) and 51% in series [2] (setting [10]).
For `Cc1cc(O)c2c(c1)C(=O)c1cc(O)cc(O)c1C2=O` [NSC408120, Emodin], the viability at 50 µM is 31% in series [1] (setting [6]) and 18% in series [2] (setting [10]).
As for `Cc1cc(C(=C2C=CC(=N)C=C2)c2ccc(N)cc2)ccc1N` [NSC93739, 2-Methyl-4,4′-[(4-imino-2,5-cyclohexadien-1-ylidene)methylene]dianiline hydrochloride], the figures for the viability at 20 µM in series [1] and in series [2] (setting [9]) were 77% and 0%, respectively. For the same compound, the viability at 50 µM in series [1] (setting [8]) came out at 43%; in series [1] (setting [6]) it was 43%; in series [2] (setting [10]), 0%.
On to `Cc1ccc(NCCN(C)C)c2c(=O)c3cc(O)ccc3sc12` [NSC317003, 9H-Thioxanthen-9-one, 1-[[2-(dimethylamino)ethyl]amino]-7-hydroxy-4-methyl-, monohydriodide], for which the viability at 50 µM is 30% in series [1] (setting [6]) and 29% in series [2] (setting [10]).
With Nogalamycin [NSC70845], in series [1], the “Residual viable cells (%) 20 μM (epifluorescence microscope counting)” value stood at 15%, the “Residual viable cells (epifluorescence microscope counting)” value stood at 15% and the “Residual viable cells (%) 50 μM” value worked out at 15%. In series [2], the “Residual viable cells (%) 20 μM (SYBR Green I/PI assay)” value came out at 3% and the “Residual viable cells (SYBR Green I/PI assay)” value turned out to be 0%.
On to `CO/N=C(\C(=O)N[C@@H]1C(=O)N2C(C(=O)O)=C(CSc3nnnn3C)CS[C@H]12)c1csc(N)n1` [Cefmenoxime], for which, in series [4], the viability at 50 µM came to 32%; the “Ratios of green/red fluorescence, Primary screening” value stood at 6.18; the “Ratios of green/red fluorescence, Rescreening (first column)” value came to 6.33; the “Ratios of green/red fluorescence, Rescreening (second column)” value is on record as 6.28. Further, in series [5] (setting [11]), the “Ratio of Green/Red fluorescence, Primary screening” value amounted to 6.82; the “Ratio of Green/Red fluorescence, Rescreening (first column)” value worked out at 7.59; the “Ratio of Green/Red fluorescence, Rescreening (second column)” value stood at 6.32. Further, the viability at 50 µM in series [5] (Borreliella burgdorferi, 168 h, read-out: Residual viable cells (regression equation, SYBR Green I/PI assay)) worked out at 48%.
Consider `CC[C@@]1(O)C[C@H](O[C@H]2C[C@H](N(C)C)[C@H](O)[C@H](C)O2)c2c(O)c3c(c(O)c2[C@H]1O[C@H]1C[C@H](N(C)C)[C@H](O)[C@H](C)O1)C(=O)c1cccc(O)c1C3=O` [NSC136044, Rhodomycin A], for which, in series [1], the “Residual viable cells (%) 20 μM (epifluorescence microscope counting)” value is recorded as 21%, the “Residual viable cells (epifluorescence microscope counting)” value is given as 22% and the “Residual viable cells (%) 50 μM” value is 21%. In series [2], the “Residual viable cells (%) 20 μM (SYBR Green I/PI assay)” value is 5% and the “Residual viable cells (SYBR Green I/PI assay)” value came out at 0%.
Turning to `Cc1c2cc[n+](CCN3CCCCC3)cc2c(C)c2c1[nH]c1ccc(O)cc12` [NSC311153, 9-Hydroxy-2-(2-piperidinylethyl)ellipticinium acetate], the values for the viability at 50 µM in series [1] (setting [6]) and in series [2] (setting [10]) were 26% and 45%, respectively.
Regarding `Cc1noc(NS(=O)(=O)c2ccc(N)cc2)c1C` [Sulfisoxazole], in series [4], the viability at 50 µM was 33%; the “Ratios of green/red fluorescence, Primary screening” value is 6.53; the “Ratios of green/red fluorescence, Rescreening (first column)” value was 6.15; the “Ratios of green/red fluorescence, Rescreening (second column)” value was determined as 6.18. Also, the “activity against stationary phase B. burgdorferi (words; SYBR Green I/PI assay)” value in series [5] (FDA drug screen) is listed as “effective”.
In the case of `COc1ccc(NS(=O)(=O)c2ccc(N)cc2)nn1` [Sulfamethoxypyridazine], in series [4], the viability at 50 µM stood at 30%; the “Ratios of green/red fluorescence, Primary screening” value stood at 6.20; the “Ratios of green/red fluorescence, Rescreening (first column)” value worked out at 6.07; the “Ratios of green/red fluorescence, Rescreening (second column)” value was 6.34.
On to `Cc1cc(NS(=O)(=O)c2ccc(N)cc2)no1` [Smx, sulfamethoxazole], for which, in series [3] (Borreliella burgdorferi, growing B. burgdorferi, read-out: MIC), the MIC was at most 0.2 µg/mL.
For the compound `O=C1c2ccccc2C(=O)c2c(O)c(NCCNCCO)cc(O)c21` [NSC316157, 9,10-Anthracenedione, 1,4-dihydroxy-2-[[2-[(2-hydroxyethyl)amino]ethyl]amino]-], the viability at 50 µM in series [1] (setting [6]) amounted to 23%; in series [2] (setting [10]), 0%.
Turning to `COc1cccc2c1C(=O)c1c(O)c3c(c(O)c1C2=O)C[C@@](O)(C(C)=O)C[C@@H]3OC1CC(N(C)C)C(O)C(C)O1` (some centres unmarked) [NSC258812, Dimethyldaunomycin hydrochloride], the viability at 20 µM in series [1] is 10%; in series [2] (setting [9]), 0%. Besides, the viability at 50 µM in series [1] (setting [8]) was determined as 10%; in series [1] (setting [6]), 10%; in series [2] (setting [10]), 0%.
